# pIC50: −log10 of the molar value.
# Tested on: NCI-H1975
# Assay: Antiproliferative activity against human NCI-H1975 cells harboring EGFR L858/T790M mutant assessed as reduction in cell viability incubated for 72 hrs by MTT assay
# Format: functional, cell-based
# Conditions: NCI-H1975, 72 h
row,pIC50,Compound
1,< 5.00,Cc1ncsc1-c1ccc(CNC(=O)[C@@H]2C[C@@H](O)CN2C(=O)[C@@H](NCCOCCOCCn2cc(CN3CCN(c4ccc(Nc5cc6c(N7CCC(CO)CC7)nc(Nc7ccc(F)cc7)nc6cn5)nc4)CC3)nn2)C(C)(C)C)cc1
2,5.53,Cc1ncsc1-c1ccc(CNC(=O)[C@@H]2C[C@@H](O)CN2C(=O)[C@@H](NCCOCCOCCN2CCN(c3ccc(Nc4cc5c(N6CCC(CO)CC6)nc(Nc6ccc(F)cc6)nc5cn4)nc3)CC2)C(C)(C)C)cc1
3,5.58,Cc1ncsc1-c1ccc(CNC(=O)[C@@H]2C[C@@H](O)CN2C(=O)[C@@H](NCCOCCOCCOCCN2CCN(c3ccc(Nc4cc5c(N6CCC(CO)CC6)nc(Nc6ccc(F)cc6)nc5cn4)nc3)CC2)C(C)(C)C)cc1
4,< 5.00,O=C1CCC(N2Cc3c(NC(=O)CCCCCCCn4cc(CN5CCN(c6ccc(Nc7cc8c(N9CCC(CO)CC9)nc(Nc9ccc(F)cc9)nc8cn7)nc6)CC5)nn4)cccc3C2=O)C(=O)N1 (centres undefined)

# Tested on: A549
# Assay: Antiproliferative activity against human A549 cells harboring EGFR assessed as reduction in cell viability incubated for 72 hrs by MTT assay
# Format: functional, cell-based
# Conditions: A549, 72 h
row,pIC50,Compound
1,< 5.00,Cc1ncsc1-c1ccc(CNC(=O)[C@@H]2C[C@@H](O)CN2C(=O)[C@@H](NCCOCCOCCn2cc(CN3CCN(c4ccc(Nc5cc6c(N7CCC(CO)CC7)nc(Nc7ccc(F)cc7)nc6cn5)nc4)CC3)nn2)C(C)(C)C)cc1
2,5.19,Cc1ncsc1-c1ccc(CNC(=O)[C@@H]2C[C@@H](O)CN2C(=O)[C@@H](NCCOCCOCCOCCN2CCN(c3ccc(Nc4cc5c(N6CCC(CO)CC6)nc(Nc6ccc(F)cc6)nc5cn4)nc3)CC2)C(C)(C)C)cc1

# Tested on: HCC827
# Assay: Antiproliferative activity against human HCC827 cells harboring EGFRDel19 mutant assessed as reduction in cell viability incubated for 72 hrs by MTT assay
# Format: functional, cell-based
# Conditions: HCC827, 72 h
row,pIC50,Compound
1,5.75,Cc1ncsc1-c1ccc(CNC(=O)[C@@H]2C[C@@H](O)CN2C(=O)[C@@H](NCCOCCOCCn2cc(CN3CCN(c4ccc(Nc5cc6c(N7CCC(CO)CC7)nc(Nc7ccc(F)cc7)nc6cn5)nc4)CC3)nn2)C(C)(C)C)cc1
2,6.47,Cc1ncsc1-c1ccc(CNC(=O)[C@@H]2C[C@@H](O)CN2C(=O)[C@@H](NCCOCCOCCN2CCN(c3ccc(Nc4cc5c(N6CCC(CO)CC6)nc(Nc6ccc(F)cc6)nc5cn4)nc3)CC2)C(C)(C)C)cc1
3,6.15,Cc1ncsc1-c1ccc(CNC(=O)[C@@H]2C[C@@H](O)CN2C(=O)[C@@H](NCCOCCOCCOCCN2CCN(c3ccc(Nc4cc5c(N6CCC(CO)CC6)nc(Nc6ccc(F)cc6)nc5cn4)nc3)CC2)C(C)(C)C)cc1
4,5.10,O=C1CCC(N2Cc3c(NC(=O)CCCCCCCn4cc(CN5CCN(c6ccc(Nc7cc8c(N9CCC(CO)CC9)nc(Nc9ccc(F)cc9)nc8cn7)nc6)CC5)nn4)cccc3C2=O)C(=O)N1 (centres undefined)

# Tested on: A-431
# Assay: Antiproliferative activity against human A-431 cells harboring EGFR assessed as reduction in cell viability incubated for 72 hrs by MTT assay
# Format: functional, cell-based
# Conditions: A-431, 72 h
row,pIC50,Compound
1,< 5.00,Cc1ncsc1-c1ccc(CNC(=O)[C@@H]2C[C@@H](O)CN2C(=O)[C@@H](NCCOCCOCCn2cc(CN3CCN(c4ccc(Nc5cc6c(N7CCC(CO)CC7)nc(Nc7ccc(F)cc7)nc6cn5)nc4)CC3)nn2)C(C)(C)C)cc1
2,5.61,Cc1ncsc1-c1ccc(CNC(=O)[C@@H]2C[C@@H](O)CN2C(=O)[C@@H](NCCOCCOCCN2CCN(c3ccc(Nc4cc5c(N6CCC(CO)CC6)nc(Nc6ccc(F)cc6)nc5cn4)nc3)CC2)C(C)(C)C)cc1
3,5.63,Cc1ncsc1-c1ccc(CNC(=O)[C@@H]2C[C@@H](O)CN2C(=O)[C@@H](NCCOCCOCCOCCN2CCN(c3ccc(Nc4cc5c(N6CCC(CO)CC6)nc(Nc6ccc(F)cc6)nc5cn4)nc3)CC2)C(C)(C)C)cc1
4,< 5.00,O=C1CCC(N2Cc3c(NC(=O)CCCCCCCn4cc(CN5CCN(c6ccc(Nc7cc8c(N9CCC(CO)CC9)nc(Nc9ccc(F)cc9)nc8cn7)nc6)CC5)nn4)cccc3C2=O)C(=O)N1 (centres undefined)

# — ChEMBL document CHEMBL4680163, “Discovery of potent epidermal growth factor receptor (EGFR) degraders by proteolysis targeting chimera (PROTAC)” (Eur J Med Chem, 2020)
